These results are taken from patent US5750540A, “1,4-di-substituted piperidine derivatives” (Banyu Pharmaceutical Co., Ltd., priority 1995, dated 1998).

In assay [1] the target is T1, muscarinic M2 receptors (Rattus norvegicus, UniProt P10980).
T1 construct: a membrane specimen from the heart was used as the membrane specimen; from tissue; host or cells: rat heart membranes (SD rat)
T1 sequence (P10980 1-466): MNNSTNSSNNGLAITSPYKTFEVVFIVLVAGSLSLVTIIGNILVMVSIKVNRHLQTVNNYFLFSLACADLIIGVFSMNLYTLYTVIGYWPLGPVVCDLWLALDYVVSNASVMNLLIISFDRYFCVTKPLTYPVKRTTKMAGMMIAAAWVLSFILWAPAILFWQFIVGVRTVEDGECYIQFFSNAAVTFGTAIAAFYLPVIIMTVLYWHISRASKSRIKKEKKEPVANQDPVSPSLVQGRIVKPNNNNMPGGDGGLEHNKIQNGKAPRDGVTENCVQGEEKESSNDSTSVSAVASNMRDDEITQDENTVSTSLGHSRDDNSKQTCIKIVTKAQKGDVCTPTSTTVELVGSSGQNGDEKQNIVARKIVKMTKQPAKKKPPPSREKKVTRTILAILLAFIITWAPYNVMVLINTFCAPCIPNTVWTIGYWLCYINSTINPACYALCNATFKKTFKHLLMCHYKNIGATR
Description: Inhibition of binding to muscarinic M2 receptors ([3H]-N-methylscopolamine, heart membrane). As to conditions: 0.2 nM [3H]-N-methylscopolamine. As to the method: The compounds of formula [I] in accordance with the present invention have a potent and selective inhibitory effect on binding to muscarinic receptors, as well as a potent and selective antagonistic effect on muscarinic receptors both in vitro and in vivo. […] In these tests, their inhibitory and antagonistic effects were expressed in terms of the dissociation constant (Ki) of each test compound which was calculated from its concentration (IC50 ) causing a 50% inhibition of the binding of a labeled ligand to muscarinic receptors. As the labeled ligand, [^3 H]-telenzepine was used for the muscarinic M1 receptors and [^3 H]-N-methylscopolamine for the muscarinic M2 and M3 receptors.
A male SD strain rat (purchased from Nippon Charles River Co., Ltd.), weighing about 250-350 g, was sacrificed, and the cerebral cortex, heart and lacrimal glands were excised. Using a Polytron (setting 5), each organ was homogenized in 5 volumes of an ice-cold buffer solution (pH 7.4) containing 50 mM tris-HCl, 5 mM magnesium chloride, 1 mM trisodium ethylenediaminetetraacetate and 20% sucrose. The resulting homogenate was centrifuged at 3,000×g at 4° C. for 15 minutes, and the supernatant was filtered through gauze and ultracentrifuged at 100,000×g at 4° C. for 45 minutes. The resulting precipitate was suspended in an ice-cold buffer solution (pH 7.4) containing 50 mM tris-HCl and 5 mM magnesium chloride (hereinafter referred briefly to as "tris buffer") and ultracentrifuged at 100,000×g at 4° C. for 45 minutes. The resulting precipitate was suspended in tris buffer so as to give a concentration of 50 mg/ml and stored at -80° C. till use. The membrane specimens so prepared were thawed prior to use and submitted to tests for the inhibition of binding to muscarinic receptors.
3) Tests for the inhibition of binding to the muscarinic M2 receptors
The nonspecific binding of [^3 H]-N-methylscopolamine to receptors was determined by the addition of 1 mM N-methylscopolamine.

The target in assay [2] is T1, muscarinic M2 receptors. The experiment in a line: Bradycardia in rats (acetylcholine-induced). The assay is classed as in vivo. The conditions noted are these: iv, 5 min, i.v., 5 minutes after administration, 50% inhibition of acetylcholine-induced bradycardia, read-out: Bradycardia ID50. As to the method: 6) Tests for bradycardia in rats
Eight- to eleven-weeks-old male rats of the Sprague-Dawley strain, weighing 300-400 g, were anesthetized with urethane (750 mg/kg, i.p.) and α-chloralose (37.5 mg/kg, i.p.). A bronchus was intubated, and the right jugular vein was cannulated for drug administration. […] To evoke bradycardia, acetylcholine (50 μg/kg, i.v.) was administered to the animals. Mean values for the acetylcholine-induced decrease in heart rate as measured five minutes before (control) and five minutes after test compound administration were calculated and the results were expressed as percentages relative to the control response. The ID50 value was calculated from the dose-response curve of the test compound using probit analysis and defined as the drug dose that inhibited the acetylcholine-induced bradycardia in the control group by 50%.

A further assay addresses muscarinic M3 receptor (Rattus norvegicus, UniProt P08483). Description: Intestinal propulsion in rats (charcoal meal). Details: from tissue. As to conditions: i.v., 15% inhibition of intestinal propulsion. The assay is classed as in vivo. The protocol: Tests for antagonism against muscarinic M3 receptor (in vivo)
5) Tests for intestinal propulsion in rats
Five- to seven-weeks-old male rats of the Sprague-Dawley strain were fasted overnight. A test compound was administered intravenously to the animals. Five minutes later, 1 ml per animal of a 5% charcoal suspension was administered orally. Thirty minutes after administration of the charcoal meal, the rats were sacrificed by decapitation, and the gastrointestinal tract was removed. The distance from the pylorus to the point of arrival of the charcoal meal was measured and the transportation rate was calculated. The ID15 value was calculated from the dose-response curve using probit analysis and defined as the drug dose that inhibited intestinal propulsion in the control group by 15%.

Sequence of muscarinic M3 receptor (P08483 whole entry): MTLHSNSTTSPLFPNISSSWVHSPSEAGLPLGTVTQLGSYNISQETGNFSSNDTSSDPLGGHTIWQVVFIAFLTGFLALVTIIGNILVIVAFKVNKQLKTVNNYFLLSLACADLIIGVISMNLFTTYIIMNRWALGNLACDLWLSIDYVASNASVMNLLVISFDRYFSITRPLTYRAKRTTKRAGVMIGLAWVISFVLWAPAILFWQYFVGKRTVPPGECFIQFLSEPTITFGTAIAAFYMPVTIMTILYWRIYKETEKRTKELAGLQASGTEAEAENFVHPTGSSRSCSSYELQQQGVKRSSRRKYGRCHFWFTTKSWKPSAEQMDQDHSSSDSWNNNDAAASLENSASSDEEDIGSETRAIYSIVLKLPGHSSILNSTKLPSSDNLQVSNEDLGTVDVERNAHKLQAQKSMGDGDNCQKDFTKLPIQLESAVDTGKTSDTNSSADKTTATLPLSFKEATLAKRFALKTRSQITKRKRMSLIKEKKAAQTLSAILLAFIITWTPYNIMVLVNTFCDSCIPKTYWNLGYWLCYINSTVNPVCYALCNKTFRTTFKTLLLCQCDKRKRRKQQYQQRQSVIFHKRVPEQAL

`CC(C)=CCCN1CCC(NC(=O)C(O)(c2ccccc2)C2CCC2)CC1` (stereo not drawn) [Example 1, N-[1-(4-methyl-3-pentenyl)-piperidin-4-yl]-2-cyclobutyl-2-hydroxy-2-phenylacetamide] returned a Ki at muscarinic M2 receptors [1] of 860 nM. Also, at muscarinic M2 receptors [2], the ED50 was over 3 mg/kg. Besides, the “Enterokinesis ID15” value on muscarinic M3 receptor is on record as 0.67 mg/kg i.v.
